Results reported in patent EP1683523A1, “2-Phenylquinoxalines as inhibitors for MPP1” (MAX-PLANCK-GESELLSCHAFT ZUR FÖRDERUNG DER WISSENSCHAFTEN …, priority 2005, dated 2006).

Tests used:
[1] = target: T1, His-tagged human MPP1 construct (Aa 1-533) (Homo sapiens, UniProt Q96Q89); experiment: Malachite-green based in vitro microtubule-stimulated ATPase assay (potency study); format: biochemical; details: microtubule-stimulated ATPase activity, DMSO as solvent control, Fig. 1
T1 construct: a His-tagged human MPP1 construct (Aa 1-533); His
T1 sequence (Q96Q89 1-533): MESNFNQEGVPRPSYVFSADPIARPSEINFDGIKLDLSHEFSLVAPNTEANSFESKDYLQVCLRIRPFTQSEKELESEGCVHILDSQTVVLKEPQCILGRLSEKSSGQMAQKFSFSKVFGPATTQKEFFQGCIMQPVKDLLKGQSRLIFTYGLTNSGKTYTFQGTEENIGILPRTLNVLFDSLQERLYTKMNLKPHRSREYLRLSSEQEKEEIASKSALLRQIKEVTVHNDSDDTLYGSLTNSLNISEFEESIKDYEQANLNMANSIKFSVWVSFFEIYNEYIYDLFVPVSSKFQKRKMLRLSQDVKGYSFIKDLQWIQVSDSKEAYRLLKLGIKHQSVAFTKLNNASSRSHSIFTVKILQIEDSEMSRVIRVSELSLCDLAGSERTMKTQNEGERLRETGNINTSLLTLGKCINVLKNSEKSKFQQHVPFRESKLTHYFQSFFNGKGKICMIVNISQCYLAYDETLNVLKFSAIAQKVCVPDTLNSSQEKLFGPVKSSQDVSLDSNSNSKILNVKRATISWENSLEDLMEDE
Method: The 2-phenylquinoxaline derivatives were measured be means of a malachite-green based (Itaya K. and UI, M. (1966), A new micromethod for the colorimetric determination of inorganic phosphate; Clin. Chim. Acta, 14: 362 - 366) in vitro ATPase assay. For this assay the microtubule-stimulated ATPase activity of a His-tagged human MPP1 construct (Aa 1-533) in the presence of small molecules or DMSO as a solvent control were measured. These studies are done in 384-well plates in which individual compounds of a large compound collection are transferred into each well using a liquid handling robot.
The potency of 5-chloro-2-(3,4-dichlorophenyl)-7-(trifluoromethyl)quinoxaline as a representative example of the 2-phenylquinoxaline derivatives of general formula (I) was determined by measuring MPP1's microtubule-stimulated ATPase activity in vitro in the presence of 5-chloro-2-(3,4-dichlorophenyl)-7-(trifluoromethyl)-quinoxaline or DMSO as a solvent control. For these studies a malachite green assay which allows the quantification of free phosphate (Pi) in solution was used.

[2] = target: T2, Eg5 (Homo sapiens, UniProt P52732); experiment: Malachite-green in vitro microtubule-stimulated ATPase assay (specificity); format: biochemical; details: Fig. 2
T2 sequence (P52732 1-1056): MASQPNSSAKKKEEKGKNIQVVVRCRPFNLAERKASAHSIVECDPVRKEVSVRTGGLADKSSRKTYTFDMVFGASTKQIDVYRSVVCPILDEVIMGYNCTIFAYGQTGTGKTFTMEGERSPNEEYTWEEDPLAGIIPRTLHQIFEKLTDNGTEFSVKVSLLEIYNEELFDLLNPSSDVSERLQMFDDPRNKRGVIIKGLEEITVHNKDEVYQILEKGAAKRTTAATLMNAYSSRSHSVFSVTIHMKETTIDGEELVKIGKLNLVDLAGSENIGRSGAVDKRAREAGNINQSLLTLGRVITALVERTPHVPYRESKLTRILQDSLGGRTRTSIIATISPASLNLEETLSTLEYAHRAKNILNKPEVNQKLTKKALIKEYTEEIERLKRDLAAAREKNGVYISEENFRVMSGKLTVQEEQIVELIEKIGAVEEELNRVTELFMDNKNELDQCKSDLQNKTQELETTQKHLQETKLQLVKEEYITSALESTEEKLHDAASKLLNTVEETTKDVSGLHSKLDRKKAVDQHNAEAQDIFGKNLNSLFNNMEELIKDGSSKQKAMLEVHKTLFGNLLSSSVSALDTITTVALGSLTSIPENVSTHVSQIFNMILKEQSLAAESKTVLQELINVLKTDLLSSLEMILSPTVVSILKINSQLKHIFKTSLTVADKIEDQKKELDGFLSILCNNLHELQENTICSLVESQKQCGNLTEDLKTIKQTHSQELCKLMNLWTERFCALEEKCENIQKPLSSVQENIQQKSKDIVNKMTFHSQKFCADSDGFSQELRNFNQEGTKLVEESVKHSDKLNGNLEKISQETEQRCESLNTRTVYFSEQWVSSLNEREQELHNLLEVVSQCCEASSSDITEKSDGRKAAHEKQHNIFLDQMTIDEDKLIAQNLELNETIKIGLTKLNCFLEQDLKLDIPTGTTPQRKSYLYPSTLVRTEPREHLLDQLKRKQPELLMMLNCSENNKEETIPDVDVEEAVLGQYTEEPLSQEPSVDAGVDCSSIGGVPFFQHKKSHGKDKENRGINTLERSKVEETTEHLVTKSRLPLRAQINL
Method: (§1) The specificity of 5-chloro-2-(3,4-dichlorophenyl)-7-(trifluoromethyl)quinoxaline was determined by measuring its effect on the microtubule-stimulated in vitro ATPase activities of the kinesins Eg5, Kif4, Mklp1, and Mklp2.

[3] = target: T3, Kif4 (Homo sapiens, UniProt O95239); experiment: as above; format: biochemical; details: Fig. 2
T3 sequence (O95239 1-1232): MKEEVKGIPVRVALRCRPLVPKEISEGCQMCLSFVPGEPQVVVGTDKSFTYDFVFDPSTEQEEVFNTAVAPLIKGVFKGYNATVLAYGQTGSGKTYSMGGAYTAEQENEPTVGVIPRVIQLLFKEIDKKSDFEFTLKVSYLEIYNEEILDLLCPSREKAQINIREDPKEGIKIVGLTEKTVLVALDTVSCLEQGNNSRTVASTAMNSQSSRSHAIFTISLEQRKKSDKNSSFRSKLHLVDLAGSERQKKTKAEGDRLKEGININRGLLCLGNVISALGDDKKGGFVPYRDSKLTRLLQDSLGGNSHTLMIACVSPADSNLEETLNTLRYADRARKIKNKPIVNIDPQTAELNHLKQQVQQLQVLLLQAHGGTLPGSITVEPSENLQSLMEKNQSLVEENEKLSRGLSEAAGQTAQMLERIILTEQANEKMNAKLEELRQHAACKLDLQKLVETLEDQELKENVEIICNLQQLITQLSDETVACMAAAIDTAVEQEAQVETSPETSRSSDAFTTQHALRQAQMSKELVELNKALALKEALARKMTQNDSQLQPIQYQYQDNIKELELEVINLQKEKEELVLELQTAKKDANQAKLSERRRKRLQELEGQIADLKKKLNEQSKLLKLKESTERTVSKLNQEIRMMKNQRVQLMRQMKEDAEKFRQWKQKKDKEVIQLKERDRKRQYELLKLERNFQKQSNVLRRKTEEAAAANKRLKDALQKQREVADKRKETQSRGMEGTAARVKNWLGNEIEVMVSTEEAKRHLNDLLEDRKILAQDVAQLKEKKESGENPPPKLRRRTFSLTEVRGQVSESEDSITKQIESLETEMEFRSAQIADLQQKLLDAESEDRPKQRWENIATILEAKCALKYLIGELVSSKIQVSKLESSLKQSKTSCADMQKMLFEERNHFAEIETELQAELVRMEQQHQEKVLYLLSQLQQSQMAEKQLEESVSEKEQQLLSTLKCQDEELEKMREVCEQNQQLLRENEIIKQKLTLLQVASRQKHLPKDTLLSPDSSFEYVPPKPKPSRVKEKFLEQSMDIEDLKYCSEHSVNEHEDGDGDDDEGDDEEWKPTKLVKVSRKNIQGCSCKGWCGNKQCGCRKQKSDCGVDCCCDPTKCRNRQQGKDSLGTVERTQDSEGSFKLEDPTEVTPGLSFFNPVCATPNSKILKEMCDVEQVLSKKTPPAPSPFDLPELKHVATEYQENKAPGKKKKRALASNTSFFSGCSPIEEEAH
Method: as §1

[4] = target: T4, Mklp1 (Homo sapiens, UniProt Q02241); experiment: as above; format: biochemical; details: Fig. 2
T4 sequence (Q02241 1-960): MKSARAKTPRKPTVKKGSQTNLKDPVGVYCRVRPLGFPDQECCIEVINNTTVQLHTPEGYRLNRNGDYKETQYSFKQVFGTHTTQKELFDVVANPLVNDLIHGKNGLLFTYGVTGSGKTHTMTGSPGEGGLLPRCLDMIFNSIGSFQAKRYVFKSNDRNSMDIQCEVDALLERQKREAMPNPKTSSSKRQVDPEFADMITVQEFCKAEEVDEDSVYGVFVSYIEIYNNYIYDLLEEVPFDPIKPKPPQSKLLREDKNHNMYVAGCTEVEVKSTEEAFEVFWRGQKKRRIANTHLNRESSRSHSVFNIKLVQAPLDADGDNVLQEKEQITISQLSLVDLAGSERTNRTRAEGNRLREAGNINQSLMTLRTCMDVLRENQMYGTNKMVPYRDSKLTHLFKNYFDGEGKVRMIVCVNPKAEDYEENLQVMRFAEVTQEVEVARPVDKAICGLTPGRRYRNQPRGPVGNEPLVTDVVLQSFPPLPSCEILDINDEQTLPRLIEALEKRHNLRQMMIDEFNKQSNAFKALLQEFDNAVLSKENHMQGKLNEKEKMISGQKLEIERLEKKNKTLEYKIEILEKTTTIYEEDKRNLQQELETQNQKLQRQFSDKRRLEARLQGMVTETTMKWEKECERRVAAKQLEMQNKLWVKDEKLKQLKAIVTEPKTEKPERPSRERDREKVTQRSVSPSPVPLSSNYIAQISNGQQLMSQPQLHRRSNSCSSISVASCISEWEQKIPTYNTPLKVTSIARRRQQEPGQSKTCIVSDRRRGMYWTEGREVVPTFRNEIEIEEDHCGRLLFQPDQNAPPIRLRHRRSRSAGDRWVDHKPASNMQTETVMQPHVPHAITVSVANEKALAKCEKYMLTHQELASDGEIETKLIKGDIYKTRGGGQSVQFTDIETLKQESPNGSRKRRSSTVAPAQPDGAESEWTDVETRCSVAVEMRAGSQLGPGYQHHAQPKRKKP
Method: as §1

[5] = target: T5, Mklp2 (Homo sapiens, UniProt O95235); experiment: as above; format: biochemical; details: Fig. 2
T5 sequence (O95235 1-890): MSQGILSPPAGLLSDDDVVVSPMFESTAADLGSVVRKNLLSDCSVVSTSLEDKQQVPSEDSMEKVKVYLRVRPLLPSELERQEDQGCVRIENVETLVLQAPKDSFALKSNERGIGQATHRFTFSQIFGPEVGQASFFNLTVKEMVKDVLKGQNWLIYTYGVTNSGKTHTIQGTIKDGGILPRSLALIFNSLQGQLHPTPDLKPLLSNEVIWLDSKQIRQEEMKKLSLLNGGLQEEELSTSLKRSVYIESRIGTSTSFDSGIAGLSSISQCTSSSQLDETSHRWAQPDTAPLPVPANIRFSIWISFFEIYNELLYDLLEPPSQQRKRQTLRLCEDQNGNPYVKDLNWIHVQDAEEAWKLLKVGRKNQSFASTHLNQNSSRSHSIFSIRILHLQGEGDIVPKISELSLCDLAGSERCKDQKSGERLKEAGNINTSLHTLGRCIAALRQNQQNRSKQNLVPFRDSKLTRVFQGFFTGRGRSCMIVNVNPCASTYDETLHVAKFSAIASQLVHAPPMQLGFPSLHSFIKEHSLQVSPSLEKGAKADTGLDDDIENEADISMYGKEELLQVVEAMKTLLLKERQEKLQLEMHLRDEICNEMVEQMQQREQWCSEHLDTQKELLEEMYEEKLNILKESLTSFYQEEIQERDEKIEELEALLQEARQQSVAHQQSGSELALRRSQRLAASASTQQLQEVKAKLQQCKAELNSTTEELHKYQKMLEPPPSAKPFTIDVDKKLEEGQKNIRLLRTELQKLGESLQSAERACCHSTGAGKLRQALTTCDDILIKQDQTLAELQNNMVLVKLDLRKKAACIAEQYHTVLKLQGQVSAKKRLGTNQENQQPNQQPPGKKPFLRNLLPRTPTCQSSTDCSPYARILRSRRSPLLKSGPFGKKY
Method: as §1

[6] = system: BSC-1 (African green monkey) cells; experiment: Cellular phenotype: count of binucleated cells; format: cell-based; details: Chlorocebus sabaeus; synchronized BSC-1 cells, released from thymidine-block for three hours, treated for 18 hours; at least 200 cells counted per concentration; read-out: EC50, induction of a binucleate phenotype in BSC-1
Method: Concerning the study the function of MPP1 in living cells, it was tested whether 5-chloro-2-(3,4-dichlorophenyl)-7-(trifluoromethyl)quinoxaline induces a phenotype similar to the one obtained by RNAi-mediated depletion of MPP1. For these studies we treated synchronized BSC-1 (African green monkey) cells with 5-chloro-2-(3,4-dichlorophenyl)-7-(trifluoromethyl)quinoxaline or DMSO as a solvent control.
BSC-1 cells were released from thymidine-block for three hours and then treated with 50µM or the indicated concentrations of 5-chloro-2-(3,4-dichlorophenyl)-7-(trifluoromethyl)quinoxaline for 18 hours. Treated cells were fixed with formaledehyde-containing buffer and the DNA and microtubule cytoskeleton were visualized with Hoechst and FITC-labled anti-tubulin antibody, respectively. The number of binucleated cells was determined by manual counting of at least 200 cells per concentration.

[7] = system: Hela S3 cells; experiment: Cellular phenotype: binucleate phenotype; format: cell-based; details: Fig. 3
[8] = system: cellular processes known to be independent of MPP1 function; experiment: Specificity in vivo: effect on cellular processes independent of MPP1; format: cell-based; details: golgi/lysosome localization, actin/microtubule cytoskeleton in interphase, protein synthesis, S to M-phase cell cycle progression, wound healing
Text: For the specificity in vivo studies, the effect of 5-chloro-2-(3,4-dichlorophenyl)-7-(trifluoromethyl)quinoxaline on cellular processes known to be independent of MPP1 function, e.g. golgi/lysosome localization, actin/microtubule cytoskeleton in interphase, protein synthesis, S to M-phase cell cycle progression, and wound healing was investigated.

FC(F)(F)c1cc(Cl)c2ncc(-c3ccc(Cl)c(Cl)c3)nc2c1 [5-chloro-2-(3,4-dichlorophenyl)-7-(trifluoromethyl)quinoxaline]
IC50 [1]: ~40 µM
effect on the in vitro ATPase activity of Eg5 [2]: no significant effect
effect on the in vitro ATPase activity of Kif4 [3]: no significant effect
effect on the in vitro ATPase activity of Mklp1 [4]: no significant effect
effect on the in vitro ATPase activity of Mklp2 [5]: no significant effect
EC50 [6]: ~50 µM
binucleate phenotype in Hela S3 cells [7]: induces a binucleate phenotype
effect on the tested cellular processes [8]: no observable effect
